Key:
Assay type in all cases: cell-based, human
PC3 cells = assay: Causal protein networks from 2D LC-MS proteomics of prostate cancer cells treated with ubidecarenone; settings: upon treatment with ubidecarenone
Description: An interrogative systems biology based discovery platform (i.e., Interrogative Platform Technology or a.k.a. Interrogative Biology™) disclosed in WO2012119129 (incorporated herein by reference), and shown schematically in FIG. 1, provides new mechanistic insights into understanding mitochondrial role in behavior of prostate cancer cells. The discovery platform involves discovery across a hierarchy of systems including in vitro human cell based models and human serum samples from prostate cancer patients and downstream data integration and mathematical modeling employing an Artificial Intelligence (AI) based informatic module. For cellular models, androgen sensitive LnCAP cell line and metastatic, androgen refractory PC3 cell line were treated with ubidecarenone (coenzyme Q10) in order to engage the mitochondrial machinery. Proteomic signatures were captured using a 2D LC-MS orbitrap technology. Total protein signatures were input to an AI based informatics module to generate causal protein networks (FIG. 2).
The keratin 8/15 association was lost upon treatment with ubidecarenone, and a direct association of keratins 7 and 15 was established (FIG. 3).

[1] = test system: LnCAP cell line and PC3 cell line; assay: Wet lab assays measuring mitochondrial ROS, ATP and caspase 3 activation; settings: LnCAP and PC3 cells treated with ubidecarenone
[2] = test system: LnCAP, DU145, and PC-3 cells; assay: Quantitative RT-PCR of FLNA, FLNB and KRT19 expression after prostate-relevant stimuli; settings: 24 h, DU145, PC-3 cells
Protocol: Specifically, mRNA was prepared from LnCAP, DU145, and PC-3 cells exposed to hypoxia (1% oxygen; A), TNFα (10 ng/mL; B), or R1881 (1 nM; C) for 24 h. Expression of FLNA, FLNB, and KRT19 was assessed by quantitative RT-PCR, normalized to TBP, and compared to PSA. Values represent means+SEM, N=3. * p<0.05 compared to normoxia/control.

COC1=C(OC)C(=O)C(C/C=C(\C)CC/C=C(\C)CC/C=C(\C)CC/C=C(\C)CC/C=C(\C)CC/C=C(\C)CC/C=C(\C)CC/C=C(\C)CC/C=C(\C)CCC=C(C)C)=C(C)C1=O [ubidecarenone]
direct association of keratins 7 and 15 in causal protein maps (PC3 cells): established | keratin 8/15 association in causal protein maps (PC3 cells): lost | intracellular levels of mitochondrial ROS, ATP and caspase 3 activation [1]: confirmed changes in intracellular levels

C[C@]1(O)CC[C@H]2[C@@H]3CCC4=CC(=O)CCC4=C3C=C[C@@]21C [R1881]
global regulation of FLNA, FLNB, and KRT19 expression (mRNA, normalized to TBP) ([2]; R1881 1 nM): remained unaltered

TNFα
global regulation of FLNA, FLNB, and KRT19 expression (mRNA, normalized to TBP) ([2]; TNFα 10 ng/mL): remained unaltered

From patent US10539566B2, “Use of markers including filamin A in the diagnosis and treatment of prostate cancer” (Berg LLC, priority 2014, dated 2020)
